Results as given in PMC9043233, “Newly synthesised oxime and lactone derivatives from Dipterocarpus alatus dipterocarpol as anti-diabetic inhibitors: experimental bioassay-based evidence and theoretical computation-based prediction” (RSC Advances, 2021).
Entries after “also recorded” stand apart in the source; their conditions may differ.

Target: α-glucosidase (Saccharomyces cerevisiae, UniProt P53341)
Assay type: biochemical
Procedure: The bioassay was carried out on 96 well-plates (200 μL per well). A solution of the test samples in 10% dimethyl sulfoxide (DMSO) was diluted further to concentrations of 1024, 256, 64, 16, 4, and 1 μg mL^−1. Each concentration of the test samples (10 μL) was incubated at 37 °C with phosphate buffer 100 mM (pH 6.8, 40 μL), α-glucosidase 0.4 U mL^−1 (25 μL), and p-nitrophenyl α-D-glucopyranoside 2.5 mM (25 μL). The reaction was stopped after 30 min by adding 100 μL of 0.1 M Na2CO3. The enzyme activities were measured based on the absorbance at λmax 405 nm of the test samples. […] Percentage inhibition was calculated as follows:[38]α-Glucosidase inhibition (%) = [Abs(control) − Abs(sample)]/Abs(control) × 100%

Chain of α-glucosidase (P53341 whole entry): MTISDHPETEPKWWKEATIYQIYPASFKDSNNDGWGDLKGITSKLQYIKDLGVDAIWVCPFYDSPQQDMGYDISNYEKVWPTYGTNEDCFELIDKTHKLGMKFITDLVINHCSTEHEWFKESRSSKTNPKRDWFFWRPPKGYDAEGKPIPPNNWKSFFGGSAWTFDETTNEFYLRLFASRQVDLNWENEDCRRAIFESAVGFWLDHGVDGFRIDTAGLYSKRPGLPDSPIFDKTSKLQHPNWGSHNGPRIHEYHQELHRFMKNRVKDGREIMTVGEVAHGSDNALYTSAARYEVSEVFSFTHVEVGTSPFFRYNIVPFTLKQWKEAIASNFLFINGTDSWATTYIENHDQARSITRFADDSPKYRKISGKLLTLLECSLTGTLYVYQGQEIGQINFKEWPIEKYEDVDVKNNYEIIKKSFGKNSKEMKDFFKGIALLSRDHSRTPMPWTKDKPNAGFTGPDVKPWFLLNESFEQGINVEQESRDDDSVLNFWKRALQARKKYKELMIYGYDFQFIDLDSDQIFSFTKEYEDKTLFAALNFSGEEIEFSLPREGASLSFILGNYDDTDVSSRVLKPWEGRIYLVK

SMILES	α-glucosidase inhibition, result in words
CC(C)=CCCC(C)(O)C1CCC2(C)C1CCC1C3(C)CCC(=NOC(=O)c4ccc(F)cc4)C(C)(C)C3CCC12C [Compound 3g, 20(S)-hydroxydammar-24-ene-3-oximyl-[4-fluorobenzoate]]	no α-glucosidase inhibition; also recorded: no inhibition activity; also recorded: unnoticeable inhibition
CC(C)=CCCC(C)(O)C1CCC2(C)C1CCC1C3(C)CCC(=NOC(=O)c4cc(I)cc(I)c4O)C(C)(C)C3CCC12C [Compound 3d, 20(S)-hydroxydammar-24-ene-3-oximyl-[2-hydroxy-3,5-diiodobenzoate]]	loss of their activity; also recorded: no inhibition activity
CC(C)=CCCC(C)(O)C1CCC2(C)C1CCC1C3(C)CCC(=NOC(=O)C(C)C)C(C)(C)C3CCC12C [Compound 3m, 20(S)-hydroxydammar-24-ene-3-oximyl isobutyrate]	no inhibition activity; also recorded: unnoticeable inhibition
CC1(C)C(=O)CC[C@@]2(C)C1CC[C@]1(C)C2CCC2[C@@H]([C@@]3(C)CCC(=O)O3)CC[C@]21C (stereo partly drawn) [Compound 4, 17-[(5α-methyl)-3,4H-furane-2-one]-25,26,27-tris-nor-dammar-3-one]	no inhibition activity; also recorded: unnoticeable inhibition
CC(C)=CCCC(C)(O)C1CCC2(C)C1CCC1C3(C)CCC(=NOC(=O)c4ccccc4I)C(C)(C)C3CCC12C [Compound 3h, 20(S)-hydroxydammar-24-ene-3-oximyl-[2-iodobenzoate]]	loss of their activity; also recorded: no inhibition activity; also recorded: unnoticeable inhibition
CC(C)=CCCC(C)(O)C1CCC2(C)C1CCC1C3(C)CCC(=NOC(=O)c4cnc(C)cn4)C(C)(C)C3CCC12C [Compound 3a, 20(S)-hydroxy dammar-24-ene-3-oximyl-[5-methyl-3,6-diazine-1-carboxylate]]	no inhibition activity; also recorded: unnoticeable inhibition
CC(C)=CCC[C@](C)(O)[C@H]1CC[C@]2(C)[C@@H]1CC[C@@H]1[C@@]3(C)CCC(=O)C(C)(C)[C@@H]3CC[C@]12C [Compound 1, dipterocarpol]	weak activity

Tested on: not given

SMILES	melting point [°C]
CC1(C)C2CC[C@]3(C)C(CCC4[C@@H]([C@@]5(C)CCC(=O)O5)CC[C@]43C)[C@@]2(C)CC[C@@H]1OC(=O)c1ccccc1O (stereo partly drawn) [Compound 6d, 17-[(5α-methyl)-3,4H-furane-2-one]-3β-(O-salycyloyl)-25,26,27-tris-nor-dammarane]	186 to 187
CCCCC(=O)O[C@H]1CC[C@@]2(C)C(CC[C@]3(C)C2CCC2[C@@H]([C@@]4(C)CCC(=O)O4)CC[C@]23C)C1(C)C (stereo partly drawn) [Compound 6b, 17-[(5α-methyl)-3,4H-furane-2-one]-3β-(O-pentanoyl)-25,26,27-tris-nor-dammarane]	134 to 135
CC(=O)O[C@H]1CC[C@@]2(C)C(CC[C@]3(C)C2CCC2[C@@H]([C@@]4(C)CCC(=O)O4)CC[C@]23C)C1(C)C (stereo partly drawn) [Compound 6a, 17-[(5α-methyl)-3,4H-furane-2-one]-3β-(O-acetyl)-25,26,27-tris-nor-dammarane]	248 to 249
CC1(C)C2CC[C@]3(C)C(CCC4[C@@H]([C@@]5(C)CCC(=O)O5)CC[C@]43C)[C@@]2(C)CC[C@@H]1OC(=O)/C=C/c1ccccc1 (stereo partly drawn) [Compound 6e, 17-[(5α-methyl)-3,4H-furane-2-one]-3β-(O-cinnamoyl)-25,26,27-tris-nor-dammarane]	236 to 238
CC1(C)C(=O)CC[C@@]2(C)C1CC[C@]1(C)C2CCC2[C@@H]([C@@]3(C)CCC(=O)O3)CC[C@]21C (stereo partly drawn) [Compound 4, 17-[(5α-methyl)-3,4H-furane-2-one]-25,26,27-tris-nor-dammar-3-one]	118.4 to 120.3
CC(C)C(=O)O[C@H]1CC[C@@]2(C)C(CC[C@]3(C)C2CCC2[C@@H]([C@@]4(C)CCC(=O)O4)CC[C@]23C)C1(C)C (stereo partly drawn) [Compound 6c, 17-[(5α-methyl)-3,4H-furane-2-one]-3β-(O-isobutyryl)-25,26,27-tris-nor-dammarane]	206 to 207
CC1(C)C2CC[C@]3(C)C(CCC4[C@@H]([C@@]5(C)CCC(=O)O5)CC[C@]43C)[C@@]2(C)CC[C@@H]1O (stereo partly drawn) [Compound 5, 3β-hydroxy-17-[(5α-methyl)-3,4H-furane-2-one]-25,26,27-tris-nor-dammarane]	195 to 196
